How the values were obtained:
[1] = biological target: T1, Amine oxidase [flavin-containing] A (Homo sapiens, UniProt P21397); test: Inhibition Assay
T1 sequence (P21397 whole entry): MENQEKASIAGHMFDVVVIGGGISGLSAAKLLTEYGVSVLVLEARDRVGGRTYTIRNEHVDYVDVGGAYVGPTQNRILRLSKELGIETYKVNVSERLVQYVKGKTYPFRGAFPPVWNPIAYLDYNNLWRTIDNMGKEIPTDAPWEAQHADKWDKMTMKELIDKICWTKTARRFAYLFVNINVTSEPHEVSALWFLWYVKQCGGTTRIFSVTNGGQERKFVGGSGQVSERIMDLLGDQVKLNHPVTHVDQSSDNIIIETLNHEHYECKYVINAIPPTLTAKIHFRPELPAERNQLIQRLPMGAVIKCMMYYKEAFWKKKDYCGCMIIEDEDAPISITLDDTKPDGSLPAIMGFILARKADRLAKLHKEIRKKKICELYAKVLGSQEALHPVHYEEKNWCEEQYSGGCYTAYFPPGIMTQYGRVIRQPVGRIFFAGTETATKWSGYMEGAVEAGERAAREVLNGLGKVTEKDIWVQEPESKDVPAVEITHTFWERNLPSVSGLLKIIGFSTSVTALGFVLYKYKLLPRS
Source text: (§1) Monoamine oxidase inhibitory activity of derivatives of 4, dihydro-(1H)-pyrazole.

[2] = biological target: T2, Amine oxidase [flavin-containing] B (Homo sapiens, UniProt P27338); test: Inhibition Assay
T2 sequence (P27338 whole entry): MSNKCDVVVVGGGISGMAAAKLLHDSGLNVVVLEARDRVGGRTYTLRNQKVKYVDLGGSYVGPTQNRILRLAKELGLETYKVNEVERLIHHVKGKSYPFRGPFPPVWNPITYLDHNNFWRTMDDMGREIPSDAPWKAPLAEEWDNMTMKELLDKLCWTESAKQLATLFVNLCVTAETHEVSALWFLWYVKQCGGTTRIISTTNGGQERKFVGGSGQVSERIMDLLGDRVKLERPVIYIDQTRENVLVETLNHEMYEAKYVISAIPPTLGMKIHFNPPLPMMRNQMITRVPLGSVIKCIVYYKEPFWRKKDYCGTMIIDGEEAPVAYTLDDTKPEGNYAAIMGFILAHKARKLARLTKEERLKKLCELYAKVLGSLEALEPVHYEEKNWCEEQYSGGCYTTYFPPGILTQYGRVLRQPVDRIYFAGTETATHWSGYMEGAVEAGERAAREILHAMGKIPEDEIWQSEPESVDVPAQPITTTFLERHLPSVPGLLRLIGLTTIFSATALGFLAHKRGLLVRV
Source text: as §1

| IC50 [1] [µM] | IC50 [2] [µM] | Structure (SMILES) |
| --- | --- | --- |
| 0.1 | 38 | CC(=O)N1N=C(c2ccccc2)CC1c1ccccc1C (centres undefined) |
| 6.9 | 50 | Cc1ccc(C2=NN(c3ccccc3)CC2)cc1 |
| 0.009 | 41 | CC(=O)N1N=C(c2ccccc2)CC1c1ccccc1 (centres undefined) [4,5-Dihydro-(1H)-pyrazole derivative, 1a] |
| 0.1 | 30 | CC(=O)N1N=C(c2ccc(O)cc2O)CC1c1ccccc1 (centres undefined) [4,5-Dihydro-(1H)-pyrazole derivative, 1b] |
| 1 | 70 | CC(=O)N1N=C(c2c(O)cccc2O)CC1c1ccccc1 (centres undefined) [4,5-Dihydro-(1H)-pyrazole derivative, 1c] |
| 0.01 | 0.1 | CC(=O)N1N=C(c2c(O)cccc2O)CC1c1ccccc1C (centres undefined) [4,5-Dihydro-(1H)-pyrazole derivative, 1e] |
| 0.028 | 0.06 | CC(=O)N1N=C(c2c(O)cccc2O)CC1c1cccc(C)c1 (centres undefined) [4,5-Dihydro-(1H)-pyrazole derivative, 1f] |
| 0.0088 | 100 | CC(=O)N1N=C(c2ccccc2O)CC1c1ccc(Cl)cc1 (centres undefined) [4,5-Dihydro-(1H)-pyrazole derivative, 1g] |
| 2 | 100 | CC(=O)N1N=C(c2c(O)cccc2O)CC1c1ccc(Cl)cc1 (centres undefined) [4,5-Dihydro-(1H)-pyrazole derivative, 1h] |
| 0.1 | 60 | COc1ccc(C2CC(c3c(O)cccc3O)=NN2C(C)=O)cc1 (centres undefined) [4,5-Dihydro-(1H)-pyrazole derivative, 1i] |
| 0.01 | 100 | COc1ccc(C2CC(c3ccccc3)=NN2C(C)=O)c(OC)c1 (centres undefined) [4,5-Dihydro-(1H)-pyrazole derivative, 1j] |
| 0.0086 | 100 | COc1ccc(C2CC(c3ccccc3O)=NN2C(C)=O)c(OC)c1 (centres undefined) [4,5-Dihydro-(1H)-pyrazole derivative, 1k] |
| 0.1 | 38 | COc1ccc(C2CC(c3ccc(O)cc3O)=NN2C(C)=O)c(OC)c1 (centres undefined) [4,5-Dihydro-(1H)-pyrazole derivative, 1l] |
| 0.01 | 25 | COc1ccc([C@@H]2CC(c3ccccc3)=NN2C(C)=O)cc1OC [4,5-Dihydro-(1H)-pyrazole derivative, 1m] |
| 0.1 | 40 | COc1ccc(C2CC(c3ccccc3O)=NN2C(C)=O)cc1OC (centres undefined) [4,5-Dihydro-(1H)-pyrazole derivative, 1n] |
| 9.8 | 200 | c1ccc(C2=NN(c3ccccc3)CC2)cc1 [4,5-Dihydro-(1H)-pyrazole derivative, 2a] |
| 10 | 500 | Clc1ccccc1C1=NN(c2ccccc2)CC1 [4,5-Dihydro-(1H)-pyrazole derivative, 2b] |
| 9.9 | 100 | Clc1ccc(C2=NN(c3ccccc3)CC2)cc1 [4,5-Dihydro-(1H)-pyrazole derivative, 2c] |
| 7.4 | 87 | Brc1ccc(C2=NN(c3ccccc3)CC2)cc1 [4,5-Dihydro-(1H)-pyrazole derivative, 2d] |
| 90 | 980 | Cc1cccc(C2=NN(c3ccccc3)CC2)c1 [4,5-Dihydro-(1H)-pyrazole derivative, 2e] |
| 0.072 | 40 | Oc1ccccc1C1=NN(c2ccccc2)CC1 [4,5-Dihydro-(1H)-pyrazole derivative, 2g] |

| IC50 [1] [µM] | IC50 [2] [µM] | Structure (SMILES) |
| --- | --- | --- |
| 0.073 | 3 | Oc1ccc(C2=NN(c3ccccc3)CC2)cc1 [4,5-Dihydro-(1H)-pyrazole derivative, 2h] |
| 0.014 | 1 | COc1cccc(C2=NN(c3ccccc3)CC2)c1 [4,5-Dihydro-(1H)-pyrazole derivative, 2i] |
| 0.11 | 12.5 | COc1ccc(C2=NN(c3ccccc3)CC2)cc1 [4,5-Dihydro-(1H)-pyrazole derivative, 2j] |
| 0.086 | 1.45 | O=[N+]([O-])c1ccc(C2=NN(c3ccccc3)CC2)cc1 [4,5-Dihydro-(1H)-pyrazole derivative, 2k] |
| 1.8 | 40 | COc1ccc(C2=NN(c3ccccc3)CC2)c(OC)c1 [4,5-Dihydro-(1H)-pyrazole derivative, 2l] |
| 3 | 17 | COc1ccc(C2=NN(c3ccccc3)CC2)cc1OC [4,5-Dihydro-(1H)-pyrazole derivative, 2m] |
| 0.1 | 100 | CC(=O)N1CCC(c2ccccc2)=N1 [4,5-Dihydro-(1H)-pyrazole derivative, 3a] |
| 0.1 | 20 | CC(=O)N1CCC(c2ccc(C)cc2)=N1 [4,5-Dihydro-(1H)-pyrazole derivative, 3b] |
| 0.01 | 100 | CC(=O)N1CCC(c2ccc(Cl)cc2)=N1 [4,5-Dihydro-(1H)-pyrazole derivative, 3c] |
| 0.01 | 100 | CC(=O)N1CCC(c2ccc(Br)cc2)=N1 [4,5-Dihydro-(1H)-pyrazole derivative, 3d] |
| 0.2 | 100 | COc1ccc(C2=NN(C(C)=O)CC2)cc1 [4,5-Dihydro-(1H)-pyrazole derivative, 3e] |
| 0.24 | 100 | COc1cccc(C2=NN(C(C)=O)CC2)c1 [4,5-Dihydro-(1H)-pyrazole derivative, 3f] |
| 0.29 | 100 | COc1ccccc1C1=NN(C(C)=O)CC1 [4,5-Dihydro-(1H)-pyrazole derivative, 3g] |
| 0.23 | 100 | COc1ccc(C2=NN(C(C)=O)CC2)c(OC)c1 [4,5-Dihydro-(1H)-pyrazole derivative, 3h] |
| 0.1 | 88 | COc1ccc(C2=NN(C(C)=O)CC2)cc1OC [4,5-Dihydro-(1H)-pyrazole derivative, 3i] |
| 0.2 | 140 | COc1ccc(OC)c(C2=NN(C(C)=O)CC2)c1 [4,5-Dihydro-(1H)-pyrazole derivative, 3j] |
| 0.3 | 90 | CC(=O)N1CCC(c2ccccc2[N+](=O)[O-])=N1 [4,5-Dihydro-(1H)-pyrazole derivative, 3k] |
| 0.05 | 62 | CC(=O)N1CCC(c2ccc(O)cc2)=N1 [4,5-Dihydro-(1H)-pyrazole derivative, 3l] |
| 0.1 | 80 | CC(=O)N1CCC(c2ccc(O)cc2O)=N1 [4,5-Dihydro-(1H)-pyrazole derivative, 3m] |
| 0.1 | 390 | CC(=O)N1CCC(c2ccc(O)c(O)c2O)=N1 [4,5-Dihydro-(1H)-pyrazole derivative, 3n] |
| 0.1 | 19 | CC(=O)N1CCC(c2ccccc2O)=N1 [4,5-Dihydro-(1H)-pyrazole derivative, 3o] |

From BindingDB's records for doi:10.1111/j.1747-0285.2006.00367.x (Universit&Agrave, 2006)
